Consider ten compounds from US6420367B1, “Pyrimidine derivatives exhibiting antitumor activity” (Shionogo & Co., Ltd., priority 1998, dated 2002).

The test system of test [1] is DT-R cells (pRRE3-luc-transfected v-ki-ras-transformed NIH3T3 cells); signal derived from Ras oncogene products. Briefly: Inhibitory effect against cellular signaling derived from Ras oncogene products: luciferase reporter, dissociation of DT-R from DT-C activity (MAC). Type of test: cell-based, mouse. The conditions noted are these: minimal tested concentration at which luciferase activities of DT-C cells and DT-R cells dissociated. Put shortly: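 DT-R (pRRE3-luc) and control DT-C (pGV-P) v-Ki-ras NIH3T3 cells were exposed 24 h to compound in 3-fold dilutions in DMEM/10% FCS at 37 °C, then lysed for luciferase luminescence. MAC is the lowest tested concentration at which DT-R and DT-C activities dissociate.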

Test [2] has as its system human squamous lung cancer Ma44. Briefly: In vitro cell growth inhibition test, MTT assay. Type of test: cell-based. The conditions noted are these: MTT assay 4 days after compound addition. Put shortly:
(§1)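 In vitro testing uses the MTT assay. The same panel includes human pancreas cancer PANC-1.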

For test [3], the system named is human pancreas cancer PANC-1. The experiment in a line: In vitro cell growth inhibition test, MTT assay. Type of test: cell-based. As to conditions: MTT assay 4 days after compound addition. Put shortly:
as §1
(In general: Tetrazolium dyes change colour on reduction, which living cells bring about.)

For test [4], the system named is human squamous lung cancer RERF-RC-AI. Briefly: In vitro cell growth inhibition test, MTT assay. Type of test: cell-based. The conditions noted are these: MTT assay 4 days after compound addition. Put shortly: as §1
Test [5] deals with human colon cancer HT29. Briefly: In vitro cell growth inhibition test, MTT assay. Type of test: cell-based. The conditions noted are these: MTT assay 4 days after compound addition. Put shortly:
as §1

The subject of test [6] is human lung adenocarcinoma A549. Briefly: In vitro cell growth inhibition test, MTT assay. It counts as cell-based. As to conditions: MTT assay 4 days after compound addition. Put shortly: as §1

Molecules are shown by their SMILES. ≈ marks a conversion by molar mass, not a printed value.

Turning to `CNC(=Nc1ncncc1CSc1nnc(-c2ccc([N+](=O)[O-])cc2)o1)NC` [Compound A-173], the “MAC (Minimal Active Concentration)” value in test [1] came out at 0.123 µg/mL. Further, the “IC50, Ma44” value in test [2] amounted to 7.2 ng/mL (≈ 0.018 µM). Further, the “IC50, PANC-1” value in test [3] is 7.2 ng/mL (≈ 0.018 µM). For the same compound, the “IC50, RERF-LC-AI” value in test [4] was determined as 3.7 ng/mL (≈ 0.00924 µM). Moreover, the “IC50, HT29” value in test [5] was 6 ng/mL (≈ 0.015 µM). The “IC50, A549” value in test [6] amounted to 17 ng/mL (≈ 0.0425 µM).
For `CCNC(=Nc1ncncc1CSc1nnc(-c2ccc(N)cc2)o1)NC` [Compound A-176], in test [1], the “MAC (Minimal Active Concentration)” value amounted to 0.123 µg/mL. Besides, in test [2], the “IC50, Ma44” value was determined as 18 ng/mL (≈ 0.0468 µM). Moreover, the “IC50, PANC-1” value in test [3] worked out at 5.6 ng/mL (≈ 0.0146 µM). Further, the “IC50, RERF-LC-AI” value in test [4] came out at 3.2 ng/mL (≈ 0.00832 µM). In addition, in test [5], the “IC50, HT29” value is 6 ng/mL (≈ 0.0156 µM). In addition, the “IC50, A549” value in test [6] amounted to 12 ng/mL (≈ 0.0312 µM).
Take `CCNC(=Nc1ncncc1CSc1nnc(-c2ccc([N+](=O)[O-])cc2)o1)NC` [Compound A-177]: the “MAC (Minimal Active Concentration)” value in test [1] came to 0.0412 µg/mL. Besides, the “IC50, Ma44” value in test [2] stood at 4.3 ng/mL (≈ 0.0104 µM). Moreover, the “IC50, PANC-1” value in test [3] is 3.8 ng/mL (≈ 0.00917 µM). Besides, the “IC50, RERF-LC-AI” value in test [4] worked out at 2 ng/mL (≈ 0.00483 µM). Further, the “IC50, HT29” value in test [5] turned out to be 3.7 ng/mL (≈ 0.00893 µM). In addition, the “IC50, A549” value in test [6] was 8.2 ng/mL (≈ 0.0198 µM).
Turning to `CCCNC(=Nc1ncncc1CSc1nnc(-c2ccc(N)cc2)o1)NCC` [Compound A-178], the “MAC (Minimal Active Concentration)” value in test [1] was 0.0412 µg/mL. Besides, the “IC50, Ma44” value in test [2] was 24 ng/mL (≈ 0.0582 µM). In addition, the “IC50, PANC-1” value in test [3] amounted to 5 ng/mL (≈ 0.0121 µM). The “IC50, RERF-LC-AI” value in test [4] turned out to be 3.6 ng/mL (≈ 0.00873 µM). Moreover, in test [5], the “IC50, HT29” value stood at 6.7 ng/mL (≈ 0.0162 µM). The “IC50, A549” value in test [6] turned out to be 14 ng/mL (≈ 0.0339 µM).
As to `CCCNC(=Nc1ncncc1CSc1nnc(-c2ccc([N+](=O)[O-])cc2)o1)NCC` [Compound A-179], the “MAC (Minimal Active Concentration)” value in test [1] was determined as 0.0137 µg/mL. In addition, the “IC50, Ma44” value in test [2] came out at 2.6 ng/mL (≈ 0.00588 µM). Besides, the “IC50, PANC-1” value in test [3] was found to be 1.8 ng/mL (≈ 0.00407 µM). Further, the “IC50, RERF-LC-AI” value in test [4] was found to be 2 ng/mL (≈ 0.00452 µM). For the same compound, in test [5], the “IC50, HT29” value amounted to 6.3 ng/mL (≈ 0.0142 µM). Besides, in test [6], the “IC50, A549” value worked out at 14 ng/mL (≈ 0.0316 µM).
Consider `CCCCNC(=Nc1nc(C)ncc1CSc1nnc(-c2ccc(N)cc2)o1)NCC` [Compound A-180], for which, in test [1], the “MAC (Minimal Active Concentration)” value turned out to be 0.00457 µg/mL. Also, the “IC50, Ma44” value in test [2] stood at 16 ng/mL (≈ 0.0363 µM). Besides, in test [3], the “IC50, PANC-1” value was found to be 8.1 ng/mL (≈ 0.0184 µM). The “IC50, RERF-LC-AI” value in test [4] came out at 8 ng/mL (≈ 0.0182 µM). The “IC50, HT29” value in test [5] came out at 12 ng/mL (≈ 0.0272 µM). In addition, the “IC50, A549” value in test [6] worked out at 14 ng/mL (≈ 0.0318 µM).
Regarding `C=CCNC(=Nc1nc(C)ncc1CSc1nnc(-c2ccc([N+](=O)[O-])cc2)o1)NCC` [Compound A-181], the “MAC (Minimal Active Concentration)” value in test [1] came out at 0.0137 µg/mL. In test [2], the “IC50, Ma44” value stood at 6.5 ng/mL (≈ 0.0143 µM). Moreover, the “IC50, PANC-1” value in test [3] was determined as 5.7 ng/mL (≈ 0.0125 µM). The “IC50, RERF-LC-AI” value in test [4] stood at 5.1 ng/mL (≈ 0.0112 µM). The “IC50, HT29” value in test [5] is 6.1 ng/mL (≈ 0.0134 µM). In addition, the “IC50, A549” value in test [6] was found to be 8.7 ng/mL (≈ 0.0191 µM).
Take `C#CCNC(=Nc1nc(C)ncc1CSc1nnc(-c2ccc([N+](=O)[O-])cc2)o1)NCC` [Compound A-183]: the “MAC (Minimal Active Concentration)” value in test [1] amounted to 0.00457 µg/mL. Also, the “IC50, Ma44” value in test [2] worked out at 2.1 ng/mL (≈ 0.00464 µM). In addition, in test [3], the “IC50, PANC-1” value was 2.6 ng/mL (≈ 0.00575 µM). Further, the “IC50, RERF-LC-AI” value in test [4] was 1.3 ng/mL (≈ 0.00287 µM). Besides, the “IC50, HT29” value in test [5] turned out to be 2 ng/mL (≈ 0.00442 µM). Moreover, in test [6], the “IC50, A549” value was 3.9 ng/mL (≈ 0.00862 µM).
On to `CCNC(N)=Nc1nc(C)ncc1CSc1nnc(-c2ccc(N)cc2)o1` [Compound A-184], for which, in test [1], the “MAC (Minimal Active Concentration)” value worked out at 0.0412 µg/mL. Also, the “IC50, Ma44” value in test [2] is 16 ng/mL (≈ 0.0416 µM). In addition, the “IC50, PANC-1” value in test [3] is 3.2 ng/mL (≈ 0.00832 µM). The “IC50, RERF-LC-AI” value in test [4] amounted to 2.7 ng/mL (≈ 0.00702 µM). For the same compound, in test [5], the “IC50, HT29” value was 7.7 ng/mL (≈ 0.02 µM). Besides, the “IC50, A549” value in test [6] is 10 ng/mL (≈ 0.026 µM).
As to `CCNC(N)=Nc1nc(C)ncc1CSc1nnc(-c2ccc([N+](=O)[O-])cc2)o1` [Compound A-185], the “MAC (Minimal Active Concentration)” value in test [1] was determined as 0.0137 µg/mL. In test [2], the “IC50, Ma44” value came out at 6.2 ng/mL (≈ 0.015 µM). For the same compound, in test [3], the “IC50, PANC-1” value is 4.1 ng/mL (≈ 0.00989 µM). In test [4], the “IC50, RERF-LC-AI” value was 2.9 ng/mL (≈ 0.007 µM). In addition, the “IC50, HT29” value in test [5] was 6.4 ng/mL (≈ 0.0154 µM). In addition, the “IC50, A549” value in test [6] came out at 13 ng/mL (≈ 0.0314 µM).
